Key:
Raw264.7 murine cells = assay: Cytotoxicity test, LDH secretion, Raw264.7; assay type: cell-based; conditions: for cytotoxicity (LDH), Raw264.7: stimulated, low concentrations
Description: 1.2.6. […] To measure the concentration of LDH in the cell lysate, 800 μL of NADH was added to 10 μL of […] and 190 μL of 0.1 M PBS in a plastic cuvette, and the decrease in the absorbance at 340 nm was monitored for 1 min. […] The percentage of cytotoxicity could be established with the formula: […]
The cytotoxicity of the tested and control compounds was evaluated using a measurement test of the LDH (Lactate Dehydrogenase) secretion. This test is based on the measurement of the amount of LDH secreted by the cells in their supernatant, compared to the amount of LDH that will remain in the intracellular compartment. This ratio provides an indication of the membrane damage suffered by the cells, and thus of the cytotoxicity of the compound.
Two methods were used to perform this test: the measurement using an extemporaneously prepared pyruvate/NADH solution, or using the Cytotoxicity Detection Kit^PLUS(LDH) from the manufacturer Roche (Sigma-Aldrich).
Pyruvate/NADH method: pyruvate/NADH solution prepared with 4.1 mg pyruvic acid (0.62 mM) and 7.7 mg NADH (0.18 mM) in 60 ml of 0.1M PBS (pH 7.4).
For the measurement of the LDH concentration in the supernatants, 800 μL of NADH was added to 200 μL of supernatant in plastic spectrometry cuvettes, and the decrease in absorbance of the final solution was read at 340 nm for 1 min. For the measurement of the LDH concentration in the cell lysates, 800 μL of NADH was added to 10 μL of cell lysates and 190 μL of 0.1M PBS in plastic spectrometry cuvettes, and the decrease in absorbance of the final solution was read at 340 nm for 1 min. The percentage of LDH secreted was then calculated by the ratio of the decay slopes of the absorbance of the supernatants and of the cell lysates (respectively).
Cytotoxicity Detection Kit^PLUS (LDH) method: absorbance test performed according to the manufacturer's instructions. The percentage of LDH secreted was then calculated by the formula: […]

[1] = Resistance to hydrolysis giving the open form; assay type: physicochemical
human lymphocytes = assay: Inhibition of IL-2 secretion by human lymphocytes stimulated by CD2, CD3 and CD28; assay type: cell-based; conditions: lymphocytes stimulated by CD2, CD3 and CD28
human keratinocytes = assay: Inhibition of IL-8 secretion by human keratinocytes stimulated by IL-17 and TNF-α; assay type: cell-based; conditions: keratinocytes stimulated by IL-17 and TNF-α

SMILES | toxicity (LDH), Raw264.7 (Raw264.7 murine cells; any of the concentrations tested) | toxicity (LDH), Raw264.7 (Raw264.7 murine cells; at 50 μM) | LDH secreted compared with the diastereomer, Raw264.7 (Raw264.7 murine cells; at all concentrations) | cytotoxicity (LDH), Raw264.7 (Raw264.7 murine cells) | resistance to hydrolysis (enzymatic and spontaneous) [1] | EC50 (human lymphocytes; Homo sapiens, Lymphocyte, read-out: relative EC50, inhibition of IL-2 secretion) | maximum inhibition as % of the inhibition obtained with the reference compound betamethasone (human lymphocytes; IL-2 secretion) | EC50 (human keratinocytes; Homo sapiens, Keratinocyte, read-out: relative EC50, inhibition of IL-8 secretion) | maximum inhibition as % of the inhibition obtained with the reference compound betamethasone (human keratinocytes; IL-8 secretion)
CCCCCCCCCC(=O)CC(=O)Nc1cc(Cl)ccc1O [I-6, N-(5-chloro-2-hydroxyphenyl)-3-oxododecanamide] | not toxic | – | – | – | – | – | – | – | –
CCCCCCCCCC(=O)CC(=O)N[C@H]1CCCC[C@H]1O [I-4, N-[(1S,2R)-2-hydroxycyclohexyl]-3-oxo-dodecanamide] | – | toxic | greater than that secreted in the presence of (S,S)-3oxoC12-ACH | not cytotoxic at low concentrations | – | – | – | – | –
CCCCCCCCCC(=O)CC(=O)N[C@H]1CCCC[C@@H]1O [I-2, N-[(1S,2S)-2-hydroxycyclohexyl]-3-oxo-dodecanamide] | – | – | – | not cytotoxic at low concentrations | resistant to the hydrolysis giving an open form (both enzymatic and spontaneous) | 89.9 nM | 46% | 111 nM | 39%

Source: patent US20220411397A1, “ANALOGUES OF N-ACYL-HOMOSERINE LACTONES AND PHARMACEUTICAL COMPOSITION COMPRISING SAME” (SORBONNE UNIVERSITE, priority 2019, published 2022)
